{
  "source": "patent US9192601B2",
  "about": "“Methods for enhancing muscle performance and tone” (Salk Institute for Biological Studies, priority 2006, dated 2015)",
  "key": {"[1]": {"system": "myoglobin, UCP3, cytochrome c (CYCS) and SCDl", "experiment": "Western blotting of oxidative biomarkers in quadriceps", "type": "in vivo, mouse", "details": "AICAR 500 mg/kg/day, 4 weeks, quadriceps", "protocol": "In addition to gene expression, protein expression was determined for selective oxidative biomarkers including myoglobin, UCP3, cytochrome c (CYCS) and SCDl, using Western blotting. Protein homogenates were prepared from quadriceps muscle, separated by SDS polyacrylamide gel electrophoresis, transferred to blotting membrane and probed with antibodies specific for myoglobin (Dako), UCP3 (Affinity Bioreagents), cytochrome c (Santacruz) SCDl (Santacruz), and, as a loading control, tubulin (Sigma)."}, "[2]": {"system": "quadriceps muscle", "experiment": "Microarray analysis of quadriceps (Affymetrix mouse genome 430A 2.0)", "type": "in vivo"}, "[3]": {"experiment": "Oxygen consumption", "type": "in vivo, mouse", "details": "AICAR 500 mg/kg/day, 4 weeks"}, "[4]": {"system": "C57B/6J mice", "experiment": "Treadmill running endurance test", "type": "in vivo, mouse", "details": "500 mg/kg/day, 4 weeks, no exercise", "protocol": "Mice were acclimated to moderate treadmill running (10 m/min for 15 min) every other day for 1 week. After acclimation, basal running endurance was determined by placing each mouse on a treadmill, gradually increasing the speed from 0 to 15 m/min, and maintaining 15 m/min until the mouse was exhausted. The time and distance run until exhaustion were recorded as the basal endurance values (Week 0).\nTreatments were administered orally.\nExpression of biomarkers characteristic of an oxidative phenotype in skeletal muscle, typically, has been correlated with increased oxidative performance (e.g., increased running endurance) of such skeletal muscle. […] Accordingly, to determine the functional effects of ligand, age and weight matched cohorts of treated and control mice were subjected to an endurance treadmill performance test before (week 0) and after (week 5) treatment.\nIn addition to affecting the contractile apparatus of skeletal muscle, exercise training also increases skeletal muscle mitochondrial density (e.g., Freyssenet et al., Arch. Physiol. Biochem., 104(2): 129-141, 1996). […] Mice in all groups were acclimated to moderate treadmill running and basal running endurance was determined as described in Example 1. Thereafter, mice in the exercise-trained groups received four weeks (5 days/week) of exercise training on a treadmill inclined at 5 degrees. […] At the end of four weeks, all exercise-trained mice were running for 50 min/day at 18 m/min. […] Unless otherwise noted, V, GW, Tr and GW+Tr subjects described in this and the examples below were similarly treated. At the end of the drug treatment and/or training protocol (Week 5) 6 mice per group were subjected to the running test. […] RNA was prepared real time quantitative PCR performed as described in Example 1.\nAt the end of the drug treatment and/or training protocol (Week 5) 6 mice per group were subjected to the running test.\nAt the end of the drug treatment and/or training protocol (Week 5), running endurance of six mice per group was determined in the same manner as was basal running endurance. […] on three mice in each group to confirm that changes observed in the skeletal muscle were not due to the acute run, but were related to the exercise training."}, "[5]": {"system": "AMPK", "experiment": "Western blot of phospho-AMPK in quadriceps", "type": "in vivo, mouse", "details": "AICAR 500 mg/kg/day, 4 weeks, quadriceps", "description": "Exercise training is known to activate kinases, such as p44/42 MAPK and AMPK, which regulate gene expression in skeletal muscle (Chen et al., Diabetes, 52:2205-12, 2003; Goodyear et al., Am. J. Physiol, 271:[…]-8, 1996). AMPK affects skeletal muscle gene expression and oxidative metabolism (Chen et al., Diabetes. 52: 2205-12, 2003, Reznick et al., J. Physiol. 574: 33-9, 2006). The interaction between exercise-regulated kinases and PPARδ signaling is described in this Example. The levels of phospho-p44/42 MAPK and phospho-AMPK a subunit and total AMPK were determined in protein homogenates of quadriceps muscle by Western blot. Antibodies specific for phospho-p44/42 MAPK, phospho- and total-AMPK αl antibodies were obtained from Cell Signaling. The phospho-specific AMPK αl antibody recognizes the key activating threonine in the activation loop."}, "[6]": {"details": "AICAR alone, untrained mice, quadriceps"}},
  "data": [
    {"compound": "NC(=O)c1ncn([C@@H]2O[C@H](CO)[C@@H](O)[C@H]2O)c1N", "note": "[AICAR, 5-amino-4-imidazolecarboxamide riboside]", "values": [
      {"measurement": "expression of UCP3 (immunoblot)", "setting": "[1]", "value": "increased expression"},
      {"measurement": "Aacs expression", "setting": "[2]; [6]", "value": 1.875},
      {"measurement": "Acly expression", "setting": "[2]; [6]", "value": 1.687},
      {"measurement": "Adipoq expression", "setting": "[2]; [6]", "value": 2.043},
      {"measurement": "Ak2 expression", "setting": "[2]; [6]", "value": 1.486},
      {"measurement": "Apoe expression", "setting": "[2]; [6]", "value": 1.403},
      {"measurement": "Cd36 expression", "setting": "[2]; [6]", "value": 1.386},
      {"measurement": "Ces3 expression", "setting": "[2]; [6]", "value": 1.516},
      {"measurement": "Cidea expression", "setting": "[2]; [6]", "value": 5.021},
      {"measurement": "Dgat2 expression", "setting": "[2]; [6]", "value": 2.034},
      {"measurement": "Elovl6 expression", "setting": "[2]; [6]", "value": 2.134},
      {"measurement": "Fabp4 expression", "setting": "[2]; [6]", "value": 1.709},
      {"measurement": "Fasn expression", "setting": "[2]; [6]", "value": 2.098},
      {"measurement": "Lep expression", "setting": "[2]; [6]", "value": 2.047},
      {"measurement": "Lipe expression", "setting": "[2]; [6]", "value": 1.64},
      {"measurement": "Lpl expression", "setting": "[2]; [6]", "value": 1.386},
      {"measurement": "Mgll expression", "setting": "[2]; [6]", "value": 1.503},
      {"measurement": "Mgst1 expression", "setting": "[2]; [6]", "value": 1.602},
      {"measurement": "Nrip1 expression", "setting": "[2]; [6]", "value": 1.474},
      {"measurement": "Pck1 expression", "setting": "[2]; [6]", "value": 2.68},
      {"measurement": "Pcx expression", "setting": "[2]; [6]", "value": 1.393},
      {"measurement": "Pdk4 expression", "setting": "[2]; [6]", "value": 1.321},
      {"measurement": "Pparg expression", "setting": "[2]; [6]", "value": 3.027},
      {"measurement": "Retn expression", "setting": "[2]; [6]", "value": 1.891},
      {"measurement": "Scd1 expression", "setting": "[2]; [6]", "value": 1.931},
      {"measurement": "Sdhd expression", "setting": "[2]; [6]", "value": 1.529},
      {"measurement": "Sfxn1 expression", "setting": "[2]; [6]", "value": 1.713},
      {"measurement": "Slc25a5 expression", "setting": "[2]; [6]", "value": 1.372},
      {"measurement": "Sult1a1 expression", "setting": "[2]; [6]", "value": 2.021},
      {"measurement": "Tspo expression", "setting": "[2]; [6]", "value": 1.441},
      {"measurement": "Ucp1 expression", "setting": "[2]; [6]", "value": 3.623},
      {"measurement": "Ucp3 expression", "setting": "[2]; [6]", "value": 1.258},
      {"measurement": "number of upregulated genes linked to oxidative metabolism", "setting": "[2]; AICAR treatment alone", "value": 32, "unit": "genes"},
      {"measurement": "oxygen consumption", "setting": "[3]", "value": "increased"},
      {"measurement": "ran further than vehicle-treated mice (distance)", "setting": "[4]", "value": "~44", "unit": "%"},
      {"measurement": "ran longer than vehicle-treated mice (time)", "setting": "[4]", "value": "~23", "unit": "%"},
      {"measurement": "phosphorylation of AMPK a subunit and acetyl CoA carboxylase (ACC)", "setting": "[5]", "value": "increased phosphorylation"}
    ]}
  ]
}
